{"source": "patent US20150018546A1", "about": "“HETEROCYCLIC COMPOUND HAVING ANTI-HIV ACTIVITY” (TOYAMA CHEMICAL CO., LTD., priority 2012, published 2015)", "tested_on": "HIV-1 (JRCSF)", "experiment": "Anti-HIV activity in MaRBLE cells infected with HIV-1 (JRCSF), luciferase readout", "type": "cell-based", "details": "Human immunodeficiency virus 1, 168 h; MaRBLE cells (human T lymphocyte-derived HPB-M(a)) infected with HIV-1 (JRCSF); 7 days culture; rate of viral proliferation by luciferase activity; read-out: Anti-HIV activity IC50", "description": "This test was conducted with reference to Journal of Clinical Microbiology, 2007, Vol. 45, p. 477-487.\nThe anti-HIV activity was evaluated using MaRBLE cells in which a luciferase gene to be expressed under the control of HIV-1 LTR and a CCR5 gene, etc. were introduced in human T lymphocyte-derived HPB-M(a).\nA fresh medium or each appropriately diluted test compound was dispensed to 96-well plates to prepare drug solution-containing plates.\nThe MaRBLE cells were suspended in RPMI1640 containing 10% FCS (fetal calf serum) and penicillin/streptomycin and infected with HIV-1 (JRCSF). Then, the cells were inoculated to the drug solution-containing plates (1×10^5 cells/well). The same number of uninfected cells were inoculated as a control group to the drug solution-containing plates.\nAfter culture at 37° C. for 7 days in a 5% CO2 atmosphere, the intracellular luciferase activity was measured using Steady-Glo Luciferase assay system (Promega Corp.).\nThe rate of viral proliferation was determined according to the following expression:\nRate of viral proliferation(%)=(A/B)×100\nA=(Firefly luciferase activity of the compound-supplemented well)−(Firefly luciferase activity of the uninfected cells)\nB=(Firefly luciferase activity of the compound-free well)−(Firefly luciferase activity of the uninfected cells)\nIC50 of the compound was calculated by a plot with concentration as the logarithm and the rate of viral proliferation as the real part using the FORECAST function (linear regression method) of Microsoft Office Excel 2003.", "data": [{"smiles": "Cc1ncnc2c1c(NCc1ccccc1N)cc(=O)n2O", "note": "[Example 123, 5-((2-aminobenzyl)amino)-8-hydroxy-4-methylpyrido[2,3-d]pyrimidin-7(8H)-one]", "values": [{"measurement": "IC50", "result": 78, "unit": "nM"}]}, {"smiles": "O=c1cc(NCc2ccc(O)cc2)c2cncnc2n1O", "note": "[Example 103, 8-hydroxy-5-((4-hydroxybenzyl)amino)pyrido[2,3-d]pyrimidin-7(8H)-one]", "values": [{"measurement": "IC50", "result": 200, "unit": "nM"}]}, {"smiles": "Cc1ccccc1CNc1cc(=O)n(O)c2ncnc(C)c12", "note": "[Example 46, 8-hydroxy-4-methyl-5-((2-methylbenzyl)amino)pyrido[2,3-d]pyrimidin-7(8H)-one]", "values": [{"measurement": "IC50", "result": 40, "unit": "nM"}]}, {"smiles": "Cc1ncnc2c1c(NCc1ccccc1O)cc(=O)n2O", "note": "[Example 112, 8-hydroxy-5-((2-hydroxybenzyl)amino)-4-methylpyrido[2,3-d]pyrimidin-7(8H)-one]", "values": [{"measurement": "IC50", "result": 28, "unit": "nM"}]}, {"smiles": "Cc1ncnc2c1c(NCc1ccccc1CN)cc(=O)n2O", "note": "[Example 140, 5-((2-(aminomethyl)benzyl)amino)-8-hydroxy-4-methylpyrido[2,3-d]pyrimidin-7(8H)-one]", "values": [{"measurement": "IC50", "result": 190, "unit": "nM"}]}, {"smiles": "Cc1ncnc2c1c(NCc1cccnc1)cc(=O)n2O", "note": "[Example 106, 8-hydroxy-4-methyl-5-(((pyridin-3-yl)methyl)amino)pyrido[2,3-d]pyrimidin-7(8H)-one]", "values": [{"measurement": "IC50", "result": 80, "unit": "nM"}]}, {"smiles": "Cc1ncnc2c1c(NCc1cncc3ccccc13)cc(=O)n2O", "note": "[Example 141, 8-hydroxy-5-(((isoquinolin-4-yl)methyl)amino)-4-methylpyrido[2,3-d]pyrimidin-7(8H)-one]", "values": [{"measurement": "IC50", "result": 46, "unit": "nM"}]}, {"smiles": "Cc1ncnc2c1c(NCCc1ccncc1)cc(=O)n2O", "note": "[Example 86, 8-hydroxy-4-methyl-5-((2-(pyridin-4-yl)ethyl)amino)pyrido[2,3-d]pyrimidin-7(8H)-one]", "values": [{"measurement": "IC50", "result": 500, "unit": "nM"}]}, {"smiles": "Cc1ncnc2c1c(NCc1ccccc1OC(F)(F)F)cc(=O)n2O", "note": "[Example 160, 8-hydroxy-4-methyl-5-((2-(trifluoromethoxy)benzyl)amino)pyrido[2,3-d]pyrimidin-7(8H)-one]", "values": [{"measurement": "IC50", "result": 68, "unit": "nM"}]}, {"smiles": "O=C(Nc1ccccc1)c1c(O)c2c(Nc3ccccc3)ncnc2n(O)c1=O", "note": "[Example 81, 4-anilino-5,8-dihydroxy-7-oxo-N-phenyl-7,8-dihydropyrido[2,3-d]pyrimidine-6-carboxamide]", "values": [{"measurement": "IC50", "result": 360, "unit": "nM"}]}, {"smiles": "Cc1ncnc2c1c(NCc1nc3ccccc3[nH]1)cc(=O)n2O", "note": "[Example 55, 5-(((1H-benzimidazol-2-yl)methyl)amino)-8-hydroxy-4-methylpyrido[2,3-d]pyrimidin-7(8H)-one]", "values": [{"measurement": "IC50", "result": 450, "unit": "nM"}]}, {"smiles": "Cc1ccncc1CNc1cc(=O)n(O)c2ncnc(C)c12", "note": "[Example 54, 8-hydroxy-4-methyl-5-(((4-methylpyridin-3-yl)methyl)amino)pyrido[2,3-d]pyrimidin-7(8H)-one]", "values": [{"measurement": "IC50", "result": 110, "unit": "nM"}]}, {"smiles": "Cc1ncnc2c1c(NCc1cccc(C#N)c1)cc(=O)n2OCc1ccccc1", "note": "[Example 34, 3-(((8-(benzyloxy)-4-methyl-7-oxo-7,8-dihydropyrido[2,3-d]pyrimidin-5-yl)amino)methyl)benzonitrile]", "values": [{"measurement": "IC50", "result": 65, "unit": "nM"}]}, {"smiles": "Cc1ncnc2c1c(NCc1cccc(O)c1)cc(=O)n2O", "note": "[Example 114, 8-hydroxy-5-((3-hydroxybenzyl)amino)-4-methylpyrido[2,3-d]pyrimidin-7(8H)-one]", "values": [{"measurement": "IC50", "result": 42, "unit": "nM"}]}, {"smiles": "Cc1ncnc2c1c(NCc1ccc(C#N)cc1)cc(=O)n2O", "note": "[Example 42, 4-(((8-hydroxy-4-methyl-7-oxo-7,8-dihydropyrido[2,3-d]pyrimidin-5-yl)amino)methyl)benzonitrile]", "values": [{"measurement": "IC50", "result": 72, "unit": "nM"}]}, {"smiles": "Cc1ncnc2c1c(NCc1cccc(C(F)(F)F)c1)cc(=O)n2O", "note": "[Example 28, 8-hydroxy-4-methyl-5-((3-(trifluoromethyl)benzyl)amino)pyrido[2,3-d]pyrimidin-7(8H)-one]", "values": [{"measurement": "IC50", "result": 43, "unit": "nM"}]}, {"smiles": "Cc1ncnc2c1c(NCc1ccc(CN)cc1)cc(=O)n2O", "note": "[Example 134]", "values": [{"measurement": "IC50", "result": 140, "unit": "nM"}]}, {"smiles": "O=c1cc(NCc2ccc(O)c(O)c2)c2cncnc2n1O", "note": "[Example 108, 5-((3,4-dihydroxybenzyl)amino)-8-hydroxypyrido[2,3-d]pyrimidin-7(8H)-one]", "values": [{"measurement": "IC50", "result": 570, "unit": "nM"}]}, {"smiles": "Cc1ncnc2c1c(NC1CCN(C)CC1)cc(=O)n2O", "note": "[Example 90, 8-hydroxy-4-methyl-5-((1-methylpiperidin-4-yl)amino)pyrido[2,3-d]pyrimidin-7(8H)-one]", "values": [{"measurement": "IC50", "result": 580, "unit": "nM"}]}, {"smiles": "Cc1c(O)c2c(-c3ccccc3)ncnc2n(O)c1=O", "note": "[Example 68, 5,8-dihydroxy-6-methyl-4-phenylpyrido[2,3-d]pyrimidin-7(8H)-one]", "values": [{"measurement": "IC50", "result": 250, "unit": "nM"}]}, {"smiles": "O=c1cc(NCc2ccccn2)c2cncnc2n1O", "note": "[Example 5, 8-hydroxy-5-(((pyridin-2-yl)methyl)amino)pyrido[2,3-d]pyrimidin-7(8H)-one]", "values": [{"measurement": "IC50", "result": 210, "unit": "nM"}]}, {"smiles": "Cc1ncnc2c1c(NCc1ccccc1F)cc(=O)n2O", "note": "[Example 36, 5-((2-fluorobenzyl)amino)-8-hydroxy-4-methylpyrido[2,3-d]pyrimidin-7(8H)-one]", "values": [{"measurement": "IC50", "result": 86, "unit": "nM"}]}, {"smiles": "Cc1ncnc2c1c(NC1CCCCC1)cc(=O)n2O", "note": "[Example 37, 5-(cyclohexylamino)-8-hydroxy-4-methylpyrido[2,3-d]pyrimidin-7(8H)-one]", "values": [{"measurement": "IC50", "result": 110, "unit": "nM"}]}, {"smiles": "O=c1cc(O)c2c(NCCc3ccccc3)ncnc2n1O", "note": "[Example 80, 5,8-dihydroxy-4-((2-phenylethyl)amino)pyrido[2,3-d]pyrimidine-7(8H)-one]", "values": [{"measurement": "IC50", "result": 570, "unit": "nM"}]}, {"smiles": "Cc1ncnc2c1c(NCc1cccc3[nH]ccc13)cc(=O)n2O", "note": "[Example 89, 8-hydroxy-5-(((1H-indol-4-yl)methyl)amino)-4-methylpyrido[2,3-d]pyrimidin-7(8H)-one]", "values": [{"measurement": "IC50", "result": 85, "unit": "nM"}]}, {"smiles": "Cc1ncnc2c1c(NCc1cncc(F)c1)cc(=O)n2O", "note": "[Example 51, 5-(((5-fluoropyridin-3-yl)methyl)amino)-8-hydroxy-4-methylpyrido[2,3-d]pyrimidin-7(8H)-one]", "values": [{"measurement": "IC50", "result": 97, "unit": "nM"}]}, {"smiles": "Cc1ncnc2c1c(NCc1ccc(NS(=O)(=O)c3ccccc3)cc1)cc(=O)n2O", "note": "[Example 145, N-(4-(((8-hydroxy-4-methyl-7-oxo-7,8-dihydropyrido[2,3-d]pyrimidin-5-yl)amino)methyl)phenyl)benzenesulfonamide]", "values": [{"measurement": "IC50", "result": 490, "unit": "nM"}]}, {"smiles": "Cc1ncnc2c1c(NCc1ccc(C(F)(F)F)nc1)cc(=O)n2O", "note": "[Example 83, 8-hydroxy-4-methyl-5-(((6-(trifluoromethyl)pyridin-3-yl)methyl)amino)pyrido[2,3-d]pyrimidine-7(8H)-one]", "values": [{"measurement": "IC50", "result": 370, "unit": "nM"}]}, {"smiles": "COc1ccc(CNc2cc(=O)n(O)c3ncncc23)cc1", "note": "[Example 1, 8-hydroxy-5-((4-methoxybenzyl)amino)pyrido[2,3-d]pyrimidin-7(8H)-one]", "values": [{"measurement": "IC50", "result": 110, "unit": "nM"}]}, {"smiles": "Cc1ncnc2c1c(NCc1cccc(Cl)c1)cc(=O)n2O", "note": "[Example 47, 5-((3-chlorobenzyl)amino)-8-hydroxy-4-methylpyrido[2,3-d]pyrimidin-7(8H)-one]", "values": [{"measurement": "IC50", "result": 59, "unit": "nM"}]}, {"smiles": "O=c1cc(O)c2c(O)ncnc2n1O", "note": "[Example 77, 4,5,8-trihydroxypyrido[2,3-d]pyrimidin-7(8H)-one]", "values": [{"measurement": "IC50", "result": 590, "unit": "nM"}]}, {"smiles": "O=c1cc(NCc2ccc(-c3ccccc3)cc2)c2cncnc2n1O", "note": "[Example 97, 5-(((biphenyl-4-yl)methyl)amino)-8-hydroxypyrido[2,3-d]pyrimidin-7(8H)-one]", "values": [{"measurement": "IC50", "result": 200, "unit": "nM"}]}, {"smiles": "O=c1cc(O)c2c(-c3ccccc3)ncnc2n1O", "note": "[Example 61, 5,8-dihydroxy-4-phenylpyrido[2,3-d]pyrimidin-7(8H)-one]", "values": [{"measurement": "IC50", "result": 490, "unit": "nM"}]}, {"smiles": "COc1ccc(CNc2cc(=O)n(O)c3ncnc(C)c23)cn1", "note": "[Example 158, 8-hydroxy-5-(((2-methoxypyridin-5-yl)methyl)amino)-4-methylpyrido[2,3-d]pyrimidin-7(8H)-one]", "values": [{"measurement": "IC50", "result": 74, "unit": "nM"}]}, {"smiles": "Cc1ncccc1CNc1cc(=O)n(O)c2ncnc(C)c12", "note": "[Example 48, 8-hydroxy-4-methyl-5-(((2-methylpyridin-3-yl)methyl)amino)pyrido[2,3-d]pyrimidin-7(8H)-one]", "values": [{"measurement": "IC50", "result": 93, "unit": "nM"}]}, {"smiles": "O=c1cc(NCc2ccccc2)c2c(O)ncnc2n1O", "note": "[Example 115, 5-(benzylamino)-4,8-dihydroxypyrido[2,3-d]pyrimidin-7(8H)-one]", "values": [{"measurement": "IC50", "result": 150, "unit": "nM"}]}, {"smiles": "Cc1ncnc2c1c(NCc1ccccc1N1CCCCC1)cc(=O)n2O", "note": "[Example 138, 8-hydroxy-4-methyl-5-((2-(piperidin-1-yl)benzyl)amino)pyrido[2,3-d]pyrimidin-7(8H)-one]", "values": [{"measurement": "IC50", "result": 94, "unit": "nM"}]}, {"smiles": "COc1cccc(CNc2cc(=O)n(O)c3ncnc(C)c23)c1", "note": "[Example 31, 8-hydroxy-5-((3-methoxybenzyl)amino)-4-methylpyrido[2,3-d]pyrimidin-7(8H)-one]", "values": [{"measurement": "IC50", "result": 230, "unit": "nM"}]}, {"smiles": "Cc1ncnc2c1c(NCc1cccc(F)c1)cc(=O)n2O", "note": "[Example 151, 5-((3-fluorobenzyl)amino)-8-hydroxy-4-methylpyrido[2,3-d]pyrimidin-7(8H)-one]", "values": [{"measurement": "IC50", "result": 54, "unit": "nM"}]}, {"smiles": "O=c1cc(NCc2ccc3ccccc3c2)c2cncnc2n1O", "note": "[Example 3, 8-hydroxy-5-((2-naphthylmethyl)amino)pyrido[2,3-d]pyrimidin-7(8H)-one]", "values": [{"measurement": "IC50", "result": 190, "unit": "nM"}]}, {"smiles": "Cc1ncnc2c1c(NCC1CCN(C)CC1)cc(=O)n2O", "note": "[Example 156, 8-hydroxy-4-methyl-5-(((1-methylpiperidin-4-yl)methyl)amino)pyrido[2,3-d]pyrimidin-7(8H)-one]", "values": [{"measurement": "IC50", "result": 590, "unit": "nM"}]}]}
